Test results published in ChEMBL document CHEMBL5465560, “Selectivity Literature for EUbOPEN Chemogenomic Library” (2024).

What was measured:
[1] = target: Mitogen-activated protein kinase 8 (Homo sapiens, UniProt P45983); conditions: at 10 µM
[2] = target: Receptor tyrosine-protein kinase erbB-3 (Homo sapiens) (UniProt P21860); experiment: Selectivity interaction (KinomeScan (DiscoverX)) EUB0000655a ERBB3; conditions: at 10 µM
[3] = target: Interferon-induced, double-stranded RNA-activated protein kinase (Homo sapiens) (UniProt P19525); experiment: Selectivity interaction (ActivX KiNativ screen (ex vivo kinase selectivity in human PBMCs)) EUB0001619a EIF2AK2; type: cell-based; conditions: PBMC, at 1 µM
Chain of Interferon-induced, double-stranded RNA-activated protein kinase (Homo sapiens) (P19525 whole entry): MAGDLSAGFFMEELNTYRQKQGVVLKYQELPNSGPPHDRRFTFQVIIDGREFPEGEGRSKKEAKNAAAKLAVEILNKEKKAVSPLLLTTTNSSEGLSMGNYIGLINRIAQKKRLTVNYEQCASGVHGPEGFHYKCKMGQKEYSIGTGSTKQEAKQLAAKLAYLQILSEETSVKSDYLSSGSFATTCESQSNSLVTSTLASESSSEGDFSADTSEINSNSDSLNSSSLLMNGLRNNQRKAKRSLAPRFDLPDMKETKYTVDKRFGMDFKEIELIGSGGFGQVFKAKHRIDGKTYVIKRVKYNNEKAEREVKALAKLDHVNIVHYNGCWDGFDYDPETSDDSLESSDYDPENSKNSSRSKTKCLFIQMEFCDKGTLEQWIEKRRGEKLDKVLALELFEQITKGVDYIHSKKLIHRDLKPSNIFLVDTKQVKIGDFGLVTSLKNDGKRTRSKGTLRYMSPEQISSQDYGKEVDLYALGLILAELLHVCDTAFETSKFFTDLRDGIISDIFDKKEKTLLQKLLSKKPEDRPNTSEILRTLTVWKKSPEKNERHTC

[4] = target: T1, Serine/threonine-protein kinase VRK1 (Homo sapiens) (UniProt Q99986); experiment: Selectivity interaction (Kinase panel (DSF assay)) EUB0001558a VRK1
T1 sequence (whole entry): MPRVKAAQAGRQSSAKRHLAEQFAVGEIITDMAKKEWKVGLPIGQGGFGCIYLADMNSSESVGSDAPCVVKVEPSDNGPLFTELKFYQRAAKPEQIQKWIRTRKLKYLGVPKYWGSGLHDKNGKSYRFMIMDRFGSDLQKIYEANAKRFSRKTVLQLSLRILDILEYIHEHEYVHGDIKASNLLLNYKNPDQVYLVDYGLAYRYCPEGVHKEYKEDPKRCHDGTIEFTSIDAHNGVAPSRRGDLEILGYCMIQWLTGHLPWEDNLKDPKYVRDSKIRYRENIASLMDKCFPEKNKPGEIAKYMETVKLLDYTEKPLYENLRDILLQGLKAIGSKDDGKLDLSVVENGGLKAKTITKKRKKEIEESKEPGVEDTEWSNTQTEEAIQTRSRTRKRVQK

[5] = target: T2, Mitogen-activated protein kinase kinase kinase 13 (Homo sapiens) (UniProt O43283); experiment: Selectivity interaction (KinomeScan (DiscoverX)) EUB0000045b MAP3K13
T2 sequence (whole entry): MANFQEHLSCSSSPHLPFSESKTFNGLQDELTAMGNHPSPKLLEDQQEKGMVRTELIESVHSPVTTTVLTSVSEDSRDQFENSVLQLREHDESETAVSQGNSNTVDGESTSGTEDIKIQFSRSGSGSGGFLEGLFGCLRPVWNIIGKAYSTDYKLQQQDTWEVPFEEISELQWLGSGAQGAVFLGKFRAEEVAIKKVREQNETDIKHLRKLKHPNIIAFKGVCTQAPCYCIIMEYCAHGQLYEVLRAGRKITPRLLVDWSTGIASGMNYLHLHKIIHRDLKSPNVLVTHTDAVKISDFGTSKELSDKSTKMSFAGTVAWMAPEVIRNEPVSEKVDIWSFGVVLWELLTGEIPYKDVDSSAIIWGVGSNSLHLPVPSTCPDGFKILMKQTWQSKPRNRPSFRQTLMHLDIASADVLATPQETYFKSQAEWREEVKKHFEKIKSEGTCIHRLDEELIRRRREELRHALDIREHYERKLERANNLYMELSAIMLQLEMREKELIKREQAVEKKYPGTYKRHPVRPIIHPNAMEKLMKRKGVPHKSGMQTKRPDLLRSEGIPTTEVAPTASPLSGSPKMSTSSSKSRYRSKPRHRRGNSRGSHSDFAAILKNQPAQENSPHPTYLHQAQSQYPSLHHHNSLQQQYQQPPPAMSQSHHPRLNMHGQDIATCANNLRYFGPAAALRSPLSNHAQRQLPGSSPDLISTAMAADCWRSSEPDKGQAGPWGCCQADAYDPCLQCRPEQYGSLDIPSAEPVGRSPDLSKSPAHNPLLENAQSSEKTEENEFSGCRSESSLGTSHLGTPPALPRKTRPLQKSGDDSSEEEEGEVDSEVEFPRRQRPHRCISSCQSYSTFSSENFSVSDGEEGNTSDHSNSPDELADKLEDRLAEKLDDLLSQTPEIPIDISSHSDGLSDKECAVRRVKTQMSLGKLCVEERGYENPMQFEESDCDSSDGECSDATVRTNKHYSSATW

[6] = target: Histone-lysine N-methyltransferase 2A (Homo sapiens) (UniProt Q03164); conditions: at 1 µM
[7] = target: Macrophage-stimulating protein receptor (Homo sapiens, UniProt Q04912); experiment: Selectivity interaction (ProQinase) EUB0000171b MST1R
Chain of Macrophage-stimulating protein receptor (Q04912 25-304 limits assumed): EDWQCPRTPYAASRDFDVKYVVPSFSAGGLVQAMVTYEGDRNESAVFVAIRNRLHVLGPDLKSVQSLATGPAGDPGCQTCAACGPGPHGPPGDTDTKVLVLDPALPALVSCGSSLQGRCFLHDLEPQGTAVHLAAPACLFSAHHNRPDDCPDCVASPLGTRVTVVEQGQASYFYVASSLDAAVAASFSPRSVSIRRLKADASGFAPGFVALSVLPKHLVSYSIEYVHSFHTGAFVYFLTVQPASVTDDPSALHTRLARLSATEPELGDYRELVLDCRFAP
Chain of Macrophage-stimulating protein receptor (Q04912 310-1400 limits assumed): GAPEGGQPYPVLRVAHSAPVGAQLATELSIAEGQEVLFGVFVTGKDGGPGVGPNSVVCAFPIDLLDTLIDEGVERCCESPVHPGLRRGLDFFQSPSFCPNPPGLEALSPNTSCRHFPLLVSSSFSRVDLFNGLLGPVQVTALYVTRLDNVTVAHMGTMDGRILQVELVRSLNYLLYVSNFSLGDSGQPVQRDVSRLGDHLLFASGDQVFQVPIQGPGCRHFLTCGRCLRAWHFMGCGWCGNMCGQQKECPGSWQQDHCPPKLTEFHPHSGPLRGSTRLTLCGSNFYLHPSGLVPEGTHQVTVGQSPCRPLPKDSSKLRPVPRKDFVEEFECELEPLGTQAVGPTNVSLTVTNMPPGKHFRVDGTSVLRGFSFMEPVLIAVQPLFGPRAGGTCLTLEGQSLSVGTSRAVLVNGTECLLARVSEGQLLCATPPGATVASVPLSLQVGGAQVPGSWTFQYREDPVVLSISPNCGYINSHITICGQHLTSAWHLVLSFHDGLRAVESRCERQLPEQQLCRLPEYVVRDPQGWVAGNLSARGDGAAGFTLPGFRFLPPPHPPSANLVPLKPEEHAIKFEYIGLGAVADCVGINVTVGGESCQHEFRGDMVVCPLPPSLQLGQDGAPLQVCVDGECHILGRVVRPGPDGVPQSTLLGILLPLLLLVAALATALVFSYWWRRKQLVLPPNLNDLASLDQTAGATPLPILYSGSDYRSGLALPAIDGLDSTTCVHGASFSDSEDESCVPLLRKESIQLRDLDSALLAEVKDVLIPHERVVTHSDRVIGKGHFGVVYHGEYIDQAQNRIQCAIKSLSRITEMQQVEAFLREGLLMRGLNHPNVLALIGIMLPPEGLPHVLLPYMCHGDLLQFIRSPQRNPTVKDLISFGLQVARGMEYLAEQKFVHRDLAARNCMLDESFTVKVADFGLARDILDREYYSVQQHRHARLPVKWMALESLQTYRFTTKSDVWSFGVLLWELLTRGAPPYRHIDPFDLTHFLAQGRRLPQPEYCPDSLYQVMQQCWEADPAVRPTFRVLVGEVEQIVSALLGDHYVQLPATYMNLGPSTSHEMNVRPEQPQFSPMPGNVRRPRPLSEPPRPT

Misshapen-like kinase 1 = Misshapen-like kinase 1 (Homo sapiens, UniProt Q8N4C8); experiment: Selectivity interaction (KinomeScan (DiscoverX)) EUB0001049a MINK1; conditions: at 1 µM
Chain of Misshapen-like kinase 1 (Q8N4C8 whole entry, looked up): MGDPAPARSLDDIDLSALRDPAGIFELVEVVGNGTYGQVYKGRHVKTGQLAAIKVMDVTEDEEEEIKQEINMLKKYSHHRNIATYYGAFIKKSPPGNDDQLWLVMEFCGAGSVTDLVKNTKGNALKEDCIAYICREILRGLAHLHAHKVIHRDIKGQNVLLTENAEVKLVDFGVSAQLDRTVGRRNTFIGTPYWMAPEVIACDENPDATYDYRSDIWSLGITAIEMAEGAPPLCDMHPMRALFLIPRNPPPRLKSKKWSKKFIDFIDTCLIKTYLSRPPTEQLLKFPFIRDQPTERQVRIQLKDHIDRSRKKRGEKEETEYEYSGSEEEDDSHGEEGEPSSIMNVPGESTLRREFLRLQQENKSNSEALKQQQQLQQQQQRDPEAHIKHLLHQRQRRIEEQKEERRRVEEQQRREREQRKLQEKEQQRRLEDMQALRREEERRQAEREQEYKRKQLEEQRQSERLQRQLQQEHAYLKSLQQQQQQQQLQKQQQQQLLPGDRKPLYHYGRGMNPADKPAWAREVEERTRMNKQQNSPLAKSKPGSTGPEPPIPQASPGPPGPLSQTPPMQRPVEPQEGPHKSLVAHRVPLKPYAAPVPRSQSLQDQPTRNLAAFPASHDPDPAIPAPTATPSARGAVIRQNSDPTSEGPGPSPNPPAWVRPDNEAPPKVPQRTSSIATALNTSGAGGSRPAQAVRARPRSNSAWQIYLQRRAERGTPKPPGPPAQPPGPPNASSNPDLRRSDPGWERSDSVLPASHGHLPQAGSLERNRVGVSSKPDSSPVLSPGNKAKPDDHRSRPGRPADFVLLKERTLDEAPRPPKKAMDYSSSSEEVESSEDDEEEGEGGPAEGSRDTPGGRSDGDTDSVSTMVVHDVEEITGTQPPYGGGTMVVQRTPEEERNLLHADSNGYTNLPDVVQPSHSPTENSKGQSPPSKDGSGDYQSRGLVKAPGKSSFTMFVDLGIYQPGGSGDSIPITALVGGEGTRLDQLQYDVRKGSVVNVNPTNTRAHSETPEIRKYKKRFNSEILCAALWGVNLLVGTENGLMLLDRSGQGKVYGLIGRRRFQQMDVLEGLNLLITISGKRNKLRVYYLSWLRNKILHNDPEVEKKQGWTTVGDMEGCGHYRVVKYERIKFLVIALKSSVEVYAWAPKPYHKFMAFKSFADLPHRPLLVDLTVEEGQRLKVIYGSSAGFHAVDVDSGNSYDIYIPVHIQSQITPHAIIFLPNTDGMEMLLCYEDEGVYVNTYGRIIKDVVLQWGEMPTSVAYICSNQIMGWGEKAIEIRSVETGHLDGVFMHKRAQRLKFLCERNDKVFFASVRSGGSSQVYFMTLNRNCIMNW

[8] = target: Kappa-type opioid receptor (Homo sapiens, UniProt P41145); experiment: Selectivity interaction (Panel of kinases, GPCRs, ion channels and transporters (enzymatic assay)) EUB0000266bCl OPRK1
Chain of Kappa-type opioid receptor (P41145 whole entry): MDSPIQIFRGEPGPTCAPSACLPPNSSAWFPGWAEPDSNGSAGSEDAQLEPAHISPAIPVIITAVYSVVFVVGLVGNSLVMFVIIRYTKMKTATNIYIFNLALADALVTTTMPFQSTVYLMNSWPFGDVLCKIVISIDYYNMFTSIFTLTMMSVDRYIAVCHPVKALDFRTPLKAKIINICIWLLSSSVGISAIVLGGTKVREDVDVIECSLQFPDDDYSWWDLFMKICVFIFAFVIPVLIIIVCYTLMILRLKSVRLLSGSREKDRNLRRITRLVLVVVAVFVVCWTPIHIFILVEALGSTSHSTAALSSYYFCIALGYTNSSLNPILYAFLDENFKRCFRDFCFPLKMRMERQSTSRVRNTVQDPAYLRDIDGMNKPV

[9] = target: Serine/threonine-protein kinase/endoribonuclease IRE2 (Homo sapiens) (UniProt Q76MJ5); experiment: Selectivity interaction (LanthaScreen Eu Kinase Binding Assay) EUB0001632a ERN2; conditions: at 10 µM
[10] = target: Ribosomal protein S6 kinase alpha-1 (Homo sapiens, UniProt Q15418); experiment: Selectivity interaction (Kinase screening (Nanosyn)) EUB0000604a RPS6KA1
Chain of Ribosomal protein S6 kinase alpha-1 (Q15418 whole entry): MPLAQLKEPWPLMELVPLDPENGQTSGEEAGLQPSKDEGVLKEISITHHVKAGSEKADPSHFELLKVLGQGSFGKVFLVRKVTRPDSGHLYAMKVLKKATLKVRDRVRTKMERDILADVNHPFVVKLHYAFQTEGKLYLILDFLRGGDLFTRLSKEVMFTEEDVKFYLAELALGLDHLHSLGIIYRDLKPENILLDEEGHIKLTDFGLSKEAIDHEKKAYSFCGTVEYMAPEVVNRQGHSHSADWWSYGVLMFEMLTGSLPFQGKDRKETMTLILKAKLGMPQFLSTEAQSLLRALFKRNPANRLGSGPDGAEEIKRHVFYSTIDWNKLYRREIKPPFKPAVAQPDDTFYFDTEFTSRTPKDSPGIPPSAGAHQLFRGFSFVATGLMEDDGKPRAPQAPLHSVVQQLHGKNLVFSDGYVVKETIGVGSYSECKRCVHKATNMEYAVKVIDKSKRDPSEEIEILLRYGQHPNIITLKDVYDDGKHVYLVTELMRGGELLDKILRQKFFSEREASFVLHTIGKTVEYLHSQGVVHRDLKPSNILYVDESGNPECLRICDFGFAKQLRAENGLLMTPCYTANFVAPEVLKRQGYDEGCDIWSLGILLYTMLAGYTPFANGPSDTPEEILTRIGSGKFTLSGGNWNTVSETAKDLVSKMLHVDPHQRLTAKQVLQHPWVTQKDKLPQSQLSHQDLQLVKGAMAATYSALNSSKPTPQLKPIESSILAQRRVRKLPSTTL

Chain of Mitogen-activated protein kinase 8 (P45983 whole entry): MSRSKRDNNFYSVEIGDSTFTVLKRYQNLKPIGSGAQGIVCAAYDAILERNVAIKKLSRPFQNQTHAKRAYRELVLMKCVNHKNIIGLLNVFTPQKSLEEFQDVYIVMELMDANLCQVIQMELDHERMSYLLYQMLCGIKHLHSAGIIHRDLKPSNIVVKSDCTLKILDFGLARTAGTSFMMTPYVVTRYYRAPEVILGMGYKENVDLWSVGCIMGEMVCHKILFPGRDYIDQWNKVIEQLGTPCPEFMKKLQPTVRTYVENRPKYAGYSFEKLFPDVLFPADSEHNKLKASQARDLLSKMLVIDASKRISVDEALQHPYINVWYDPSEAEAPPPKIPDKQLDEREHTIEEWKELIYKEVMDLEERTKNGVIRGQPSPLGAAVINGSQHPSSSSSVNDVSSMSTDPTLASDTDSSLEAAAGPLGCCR

In the case of `CCN(CC)CCCCNc1ncc2cc(-c3cc(OC)cc(OC)c3)c(NC(=O)NC(C)(C)C)nc2n1`, the % of control [1] is reported as 100%.

Molecule `CN(C)CCOc1ccc(-c2nc(-c3ccncc3)c(-c3ccc4c(c3)CC/C4=N\O)[nH]2)cc1` has a % of control [2] of 0.7%.

For `N#Cc1cccc(-c2c[nH]c3ncnc(N4CCOCC4)c23)c1`, the % of inhibition [3] was 7%.

`CC(C)(O)[C@H](F)CN1Cc2cc(NC(=O)c3cnn4cccnc34)c(N3CCOCC3)cc2C1=O` showed a dTM [4] of -0.3 K.

For `C=CC(=O)Nc1cc(-n2c(=O)ccc3cnc4ccc(-c5ccc(NS(C)(=O)=O)cc5)cc4c32)ccc1C`, the % of control ([5]; at 1 µM) was 100% and the % of control ([5]; at 10 µM) was 100%.

With `CNCCN1CCC(c2cc(CN(C)C(=O)c3cccc(Oc4ccccc4)c3)ccn2)CC1` the % activity [6] was > 90%.

For `C=CC(=O)Nc1cccc(C(=O)Nc2ccc(Nc3cc(-c4[nH]c(SC)nc4C)ccn3)cc2)c1`, the % of control ([7]; at 1 µM) was 92% and the % of control ([7]; at 5 µM) was 104%.

For `COc1cc(Nc2nc(C)cc(-c3cnn4nc(OC)ccc34)n2)cc(C(F)(F)F)c1`, the % of control (Misshapen-like kinase 1) was 79%.

For `CCn1c(-c2nc3cc(C(=O)N4CCCC(N)C4)ccc3n2C)cc2ccccc21` (stereo not drawn), the pXC50 [8] was < 4 M.

In the case of `Cn1cc(-n2cnc3c(NCc4nc5cc(Cl)c(Cl)cc5[nH]4)nc(N4CCOCC4)nc32)cn1`, the % of inhibition [9] is reported as -30.9%.

Molecule `Cc1cnc(Nc2ccc(F)cc2Cl)nc1-c1c[nH]c(C(=O)N[C@H](CO)c2cccc(Cl)c2)c1` has a % of inhibition [10] of 4%.
